This note sets out measurements from patent US10858331B1, “Ester nitrates derivatives of aromatic aldehydes with multiple pharmalogic properties to treat sickle cell disease” (VIRGINIA COMMONWEALTH UNIVERSITY, priority 2013, dated 2020).

The target of data set [1] is T1, Hb (Homo sapiens, UniProt P68871+P69905).
T1 construct: normal whole blood (AA); from tissue; host or cells: normal whole blood (AA), red blood cells
In words: Oxygen equilibrium curve (OEC) study with normal whole blood (AA). In kind it is cell-based. The conditions noted are these: 2 mM compound, 1.5 h incubation; for P50: 37° C.; for ΔP50: versus DMSO control. The procedure: (§1) Studies were performed on compounds TD-7, TD-7-1, TD-8, TD-8-1, TD-9 and TD-9-1 using 100 mM stock solution in DMSO and normal whole blood (AA). TD-7, TD-8 and TD-9 are compounds with a hydroxymethyl group on the pyridine ring, while TD-7-1, TD-8-1 and TD-9-1 are the respective nitrate ester derivatives. The whole blood samples had hematocrit values ranging from 29-36%, and cell-free purified Hb of 10-12 g/dL in the absence or presence of effectors solubilized in DMSO at 2 mM or in some cases with varying compound concentration. The blood samples were incubated in an IL 237 tonometer (Instrumentation Laboratories, Inc., Lexington, Mass.) for about 5-7 min at 37° C. against a gas mixture containing O2 concentrations of 0.804%, 2.935% and 5.528% and allowed to equilibrate at O2 tensions of 6, 20 and 40 mmHg. After equilibration, the sample was removed via syringe and aspirated into a ABL 700 series table top automated blood gas analyzer (Radiometer America, Inc., Westlake, Ohio) to determine total hemoglobin (tHb), hematocrit (Hct), pH, pCO2, partial pressure of oxygen (pO2), and the Hb oxygen saturation values (sO2). Similar procedures were followed for concentration and time dependence studies. The measured values of pO2 and sO2 at each oxygen saturation level were then subjected to a non-linear regression analysis using the program Scientist (Micromath, Salt Lake City, Utah) with the following equation: […]
This equation was used to calculate P50 and Hill coefficient (N) values. Corresponding control experiments without the test compound (P50control) but containing DMSO were also performed.

A short description of data set [2]: NO release study (Griess assay) in presence of L-cysteine. The conditions noted are these: for NO2− release after 16 hours / NO2− release after 1 hour: 2 mM compound solution mixed with 36 mM L-cysteine, phosphate buffer pH 7.4, 37° C., anaerobic; for NO release in the form of NO2− (rank among the compounds): comparison of the four nitrate esters. The procedure: Griess assay was performed on the left-shifting nitrate ester compounds (TD-1, […], TD-8-1 and, TD-9-1) to measure the release of NO. Griess assay is a colorimetric assay, used for detection of NO in the form of nitrite ions (NO2^−). NO released in solution is highly unstable, with a half-life of 1 to 30 s. It gets rapidly oxidized to NO2^− which is detected by the Griess reagent. In this method, NO2^−, first reacts with the sulfanilamide present in the reagent to form a transient diazonium salt. […] Sodium nitrite (NaNO2) was used as a standard for the Griess assay. NaNO2 samples in deionized water were prepared of concentrations within the linear range of the assay (1-100 μM). The samples were incubated for 30 min at 37° C., after which Griess reagent was added and absorbance was measured at 540 nm. The measured absorbances were used to obtain a standard curve (FIG. 3). For the measurement of NO2^− release for all the test compounds (TD-1, TD-7-1, TD-8-1 and TD-9-1), the absorbances were extrapolated from the standard NaNO2 curve.
In this assay, a solution of the test compound (1 mL of a 2 mM solution in 0.1 M phosphate buffer (pH 7.4)) was mixed thoroughly with a freshly prepared solution of L-cysteine (1 mL of a 36 mM solution in 0.1 M phosphate buffer, pH 7.4), and incubated at 37° C., for 1 and 16 h under anaerobic conditions. After exposure to air for 10 min at 25° C., an aliquot of the Griess reagent (1 mL) [freshly prepared by mixing equal volumes of 1.0% sulfanilamide (prepared and stored in aqueous 5% phosphoric acid) and 0.1% N-naphthylethylenediamine dihydrochloride in water] was added to an equal volume (1 mL) of each incubation solution after mixing. After 10 min, absorbance was measured at 540 nm using a Hewlett Packard (Agilent) 8453 UV-visible Spectroscopy. NaNO2 solutions of 1-100 μM concentrations were used to prepare a standard nitrite curve of absorbance […] versus concentration (μM). The NO released (quantitated as NO2^− release in μM) was calculated from the standard nitrite curve by extrapolation of the absorbance. […]
Background: The Griess reaction detects nitrite, a stable product of nitric oxide.

Data set [3] concerns SS cells. In words: In vitro RBC anti-sickling (morphological) study with SS cells. In kind it is cell-based, human. The procedure: In vitro RBC morphological (anti-sickling) analysis was conducted at the Children's Hospital of Philadelphia (by Drs. Toshio Asakura and Osheiza Abdulmalik). The anti-sickling effects of 5HMF, TD-7 HCl, TD-7, TD-1, and TD-7-1 were studied by incubating suspensions of SS cells in the absence or presence of three different concentrations of the effectors in the presence of air for 1 h at 37° C. followed by incubation under 4% oxygen at 37° C. for 5 h. All samples were pre-incubated for 1 h with various compounds and then incubated under 4% O2 for 5 h. […] Table 5 represents the concentrations of the effectors along with the % inhibition of sickling cells. The hemolysates that had been prepared from SS cells after incubation with test compounds were also subjected to cation-exchange HPLC as previously reported (Abdulmalik et al., 2005).

Data set [4] has as its target T2, cell-free Hb (Homo sapiens, UniProt P68871+P69905).
T2 construct: Hemoglobin was prepared from centrifuging human blood; from tissue; host or cells: human blood (red cells lysed, Hb purified on DEAE sephacel)
In words: OEC study with normal cell-free Hb. In kind it is biochemical. The conditions noted are these: cell-free Hb 12 mg/mL, 2 mM compound; for N (Hill coefficient) / P50: n = 1; for ΔP50: versus control P50 12.5. The procedure:
as §1
Hemoglobin was prepared from centrifuging human blood at 2500 rpms for 20 min at 4° C. The supernatant solution, debris and plasma were discarded from the centrifuge bottles, leaving behind RBCs. The RBCs were washed thrice with an excess volume of 0.9% NaCl, and once with 1.0% NaCl, each time centrifuging and discarding the supernatant solution. The RBCs were pooled together into a chilled flask and hemolyzed to free Hb by adding 1-2 volume excess of 50 mM Tris buffer, pH 8.6 (containing EDTA). The mixture was allowed to stand in ice for 30 min with occasional stirring. The Hb solution was centrifuged at 10,000 rpm for 2 h at 4° C. The supernatant Hb solution was pooled into a chilled flask and NaCl (40-60 mg/mL Hb solution) was slowly added with stirring. Hemoglobin solution was centrifuged at 10,000 rpm for 2 h at 4° C. to remove any cell stroma remnants. The clear supernatant Hb solution was pooled into a chilled flask and the “syrupy” pellet was discarded. Hemoglobin solution was dialyzed against 50 mM Tris buffer, pH 8.6 (containing EDTA) at 4° C. to remove NaCl and/or other low molecular weight impurities. Strips of standard cellulose dialysis tubing that had been washed 3-4 times and boiled for 10 min in deionized water were used for dialysis. The dialyzed Hb was further purified by ion-exchange chromatography using DEAE sephacel to exclude 2,3-DPG. The resin was equilibrated with 50 mM Tris buffer, pH 8.6, and the Hb solution was run through the column with 50 mM Tris buffer, pH 8.6 (containing EDTA). The pooled fractions were concentrated with an Amicon stirred cell (Amicon, Model 402), to a final HbA concentration of about 80-120 mg/mL. Concentrated HbA was stored at −80° C.
As a result of the low left-shifting activities of TD-8 and TD-9, as well as the nitrate ester derivatives, we further evaluated the activity of the compounds TD-1, TD-7, TD-7-1, TD-8, and TD-9 using cell-free Hb (devoid of any proteins, enzymes, plasma and cell membranes) to determine whether plasma protein or RBC membrane could have any effect on compound biological activity. Previous studies have shown limited effect of plasma protein and RBC membrane on SHMF activity. The same tonometry procedure used on whole blood was used with the cell-free hemoglobin using 2 mM compound and 12 mg/mL of Hb.

The structures appear in SMILES notation.

T2 sequence (P69905 2-142 limits assumed): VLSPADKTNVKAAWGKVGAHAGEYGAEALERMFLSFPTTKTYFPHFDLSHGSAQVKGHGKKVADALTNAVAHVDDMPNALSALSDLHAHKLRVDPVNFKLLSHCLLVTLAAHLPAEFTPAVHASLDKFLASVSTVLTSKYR
T2 sequence (P68871 2-147 limits assumed): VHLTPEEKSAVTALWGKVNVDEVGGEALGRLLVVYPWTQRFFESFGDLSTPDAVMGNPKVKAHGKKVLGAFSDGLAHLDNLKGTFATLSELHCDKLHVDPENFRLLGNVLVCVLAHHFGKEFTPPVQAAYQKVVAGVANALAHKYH
T1 sequence (P69905 2-142 limits assumed): as the sequence (P69905 2-142 limits assumed) above
T1 sequence (P68871 2-147 limits assumed): as the sequence (P68871 2-147 limits assumed) above

On to `COc1ccc(C=O)cc1OCc1cccc(CO[N+](=O)[O-])n1` [TD-8-1, (6-((5-Formyl-2-methoxyphenoxy)methyl)pyridin-2-yl)methyl nitrate], for which, in data set [1], the “N (Hill coefficient)” value is 2.1^d†, the P50 was 30.8^d† mmHg and the ΔP50 is −0.5 mmHg. Further, in data set [2], the “NO2− release after 16 hours” value is 102.54 µM and the “NO release in the form of NO2− (rank among the compounds)” value is given as “most release”.

For `COc1ccc(C=O)c(OCc2cccc(CO[N+](=O)[O-])n2)c1` [TD-9-1, (6-((2-Formyl-5-methoxyphenoxy)methyl)pyridin-2-yl)methyl nitrate], in data set [1], the “N (Hill coefficient)” value was 1.9^d†, the P50 is given as 28.6^d† mmHg and the ΔP50 was −2.7 mmHg. Further, the “NO2− release after 16 hours” value in data set [2] is 78.66 µM.

For `O=Cc1ccc(CO[N+](=O)[O-])o1` [TD-1, 5-Nitrooxymethyl furfural], the “Anti-sickling effect (in words)” value in data set [3] (SS cells, 4% O2, 5 h, concentration not given, in comparison with 5HMF) was “only a modest decrease in the anti-sickling effect”. In data set [1], the “N (Hill coefficient)” value is given as 1.9 ± 0.1^c†, the P50 was 27.4 ± 2.3^c† mmHg and the ΔP50 is −3.9 mmHg. In data set [2], the “NO2− release after 1 hour” value is 4.02 µM and the “NO release in the form of NO2− (rank among the compounds)” value is “least release”. Further, in data set [4], the “N (Hill coefficient)” value was 2.0, the P50 was determined as 8.4 mmHg and the ΔP50 is reported as −4.1 mmHg.

`COc1ccc(OCc2cccc(CO[N+](=O)[O-])n2)c(C=O)c1` [TD-7-1, (6-((2-Formyl-4-methoxyphenoxy)methyl)pyridin-2-yl)methyl nitrate]: in data set [3] (Homo sapiens, 0.5 mM, SS cells, 1 h air then 4% O2, 37° C., 5 h, read-out: Inhibition of sickled cells), the inhibition at 500 µM was 72%. Also, in data set [3] (Homo sapiens, 1.0 mM, SS cells, 1 h air then 4% O2, 37° C., 5 h, read-out: Inhibition of sickled cells), the inhibition at 1000 µM was 100%. The inhibition at 2000 µM in data set [3] (Homo sapiens, 2.0 mM, SS cells, 1 h air then 4% O2, 37° C., 5 h, read-out: Inhibition of sickled cells) was determined as 100%. For the same molecule, in data set [3] (at higher drug concentrations), the “Hemolysis of RBC” value is listed as “hemolyzed the RBC at higher drug concentrations”. In data set [1], the “N (Hill coefficient)” value is listed as 1.7 ± 0.1^c†, the P50 is given as 23.4 ± 1.6^c† mmHg and the ΔP50 is −7.9 mmHg. In addition, in data set [2], the “NO2− release after 1 hour” value was 7.61 µM and the “NO2− release after 16 hours” value is 59.25 µM. In data set [4], the “N (Hill coefficient)” value worked out at 2.1, the P50 came to 7.7 mmHg and the ΔP50 is reported as −3.9 mmHg.

By inhibition is commonly meant the share of the control response that was lost under treatment.
